Measured values taken from article PMC3599939 (BMC Infectious Diseases, 2013).

Test system: influenza virus neuraminidase (NA)
Format: biochemical

CCOC(=O)C1=C[C@@H](OC(CC)CC)[C@H](NC(C)=O)[C@@H](N)C1 [Oseltamivir, oseltamivir]
Phenotype (S/R): R and S | sensitivity of viruses to Oseltamivir: sensitive
